Measured values: patent publication US9695155B2, “Herbicidal substituted pyrimidinyloxy benzene compounds” (E. I. DU PONT DE NEMOURS AND COMPANY, priority 2013, dated 2017)

How the values were obtained:
green foxtail = test: Test D postemergence; format: in vivo, Setaria viridis
From the text: (§1) Seeds of plant species selected from bluegrass (annual bluegrass, Poa annua), blackgrass (Alopecurus myosuroides), canarygrass (littleseed canarygrass, Phalaris minor), chickweed (common chickweed, Stellaria media), galium (catchweed bedstraw, Galium aparine), bromegrass, downy (downy bromegrass, Bromus tectorum), field poppy (Papaver rhoeas), field violet (Viola arvensis), green foxtail (Setaria viridis), deadnettle (henbit deadnettle, Lamium amplexicaule), Italian ryegrass (Lolium multiflorum), kochia (Kochia scoparia), lambsquarters (Chenopodium album), oilseed rape (Brassica napus), pigweed (Amaranthus retroflexus), chamomile (scentless chamomile, Matricaria inodora), Russian thistle (Salsola kali), speedwell (bird's-eye speedwell, Veronica persica), spring barley (Hordeum vulgare), spring wheat (Triticum aestivum), wild buckwheat (Polygonum convolvulus), wild mustard (Sinapis arvensis), wild oat (Avena fatua), wild radish (Raphanus raphanistrum), windgrass (Apera spica-venti), winter barley (Hordeum vulgare), and winter wheat (Triticum aestivum) were planted into a silt loam soil and treated preemergence with test chemicals formulated in a non-phytotoxic solvent mixture which included a surfactant.
(§2) At the same time, these species were planted in pots containing Redi-Earth® planting medium (Scotts Company, 14111 Scottslawn Road, Marysville, Ohio 43041) comprising spaghnum peat moss, vermiculite, wetting agent and starter nutrients and treated with postemergence applications of the test chemicals formulated in the same manner. Plants ranged in height from 2 to 18 cm (1- to 4-leaf stage). Treated plants and controls were maintained in a controlled growth environment for 7 to 21 days after which time all species were compared to controls and visually evaluated. Plant response ratings, summarized in Table D, are based on a scale of 0 to 100 where 0 is no effect and 100 is complete control. A dash (-) response means no test result.

chamomile [1] = test: Test D postemergence; format: in vivo, Matricaria inodora
From the text: as §1, §2

field violet = test: Test D preemergence; format: in vivo, Viola arvensis
From the text: as §1, §2

kochia = test: Test D preemergence; format: in vivo, Kochia scoparia
From the text: as §1, §2

wild oat = test: Test D preemergence; format: in vivo, Avena fatua
From the text: as §1, §2

galium = test: Test D preemergence; format: in vivo, Galium aparine
From the text: as §1, §2

spring wheat = test: Test D postemergence; format: in vivo, Triticum aestivum
From the text: as §1, §2

winter wheat = test: Test D postemergence; format: in vivo, Triticum aestivum
From the text: as §1, §2

windgrass = test: Test D preemergence; format: in vivo, Apera spica-venti
From the text: as §1, §2

field poppy = test: Test D preemergence; format: in vivo, Papaver rhoeas
From the text: as §1, §2

chamomile [2] = test: Test D preemergence; format: in vivo, Matricaria inodora; settings: scale 0-100
From the text: as §1, §2

[3] = 31 g ai/ha, scale 0 to 100 (0 no effect, 100 complete control)
[4] = 62 g ai/ha, scale 0 to 100 (0 no effect, 100 complete control)
[5] = 125 g ai/ha, scale 0 to 100 (0 no effect, 100 complete control)
[6] = 250 g ai/ha, scale 0 to 100 (0 no effect, 100 complete control)
[7] = 16 g ai/ha, scale 0 (no effect) to 100 (complete control)

Clc1cnc(Oc2ccccc2-n2cc(Cl)cn2)nc1 [Compound 3]
Plant response rating, Foxtail, Green (green foxtail; 16 g ai/ha, scale 0-100): 10 | Plant response rating, Foxtail, Green (green foxtail; [3]): 0 | Plant response rating, Foxtail, Green (green foxtail; [4]): 0 | Plant response rating, Foxtail, Green (green foxtail; [5]): 0 | Plant response rating, Foxtail, Green (green foxtail; [6]): 10 | Plant response rating, Chamomile (chamomile [1]; 16 g ai/ha, scale 0-100): 0 | Plant response rating, Chamomile (chamomile [1]; [3]): 0 | Plant response rating, Chamomile (chamomile [1]; [4]): 0 | Plant response rating, Chamomile (chamomile [1]; [5]): 0 | Plant response rating, Chamomile (chamomile [1]; [6]): 0 | Plant response rating, Field Violet (field violet; [7]): 40 | Plant response rating, Field Violet (field violet; 31 g ai/ha, scale 0-100): 80 | Plant response rating, Field Violet (field violet; 62 g ai/ha, scale 0-100): 80 | Plant response rating, Field Violet (field violet; 125 g ai/ha, scale 0-100): 85 | Plant response rating, Field Violet (field violet; 250 g ai/ha, scale 0-100): 85 | Plant response rating, Kochia (kochia; [7]): 0 | Plant response rating, Kochia (kochia; 31 g ai/ha, scale 0-100): 30 | Plant response rating, Kochia (kochia; 62 g ai/ha, scale 0-100): 30 | Plant response rating, Kochia (kochia; 125 g ai/ha, scale 0-100): 30 | Plant response rating, Kochia (kochia; 250 g ai/ha, scale 0-100): 50 | Plant response rating, Oat, Wild (wild oat; [7]): 0 | Plant response rating, Oat, Wild (wild oat; 31 g ai/ha, scale 0-100): 0 | Plant response rating, Oat, Wild (wild oat; 62 g ai/ha, scale 0-100): 0 | Plant response rating, Oat, Wild (wild oat; 125 g ai/ha, scale 0-100): 0 | Plant response rating, Oat, Wild (wild oat; 250 g ai/ha, scale 0-100): 10 | Plant response rating, Galium (galium; [7]): 0 | Plant response rating, Galium (galium; 31 g ai/ha, scale 0-100): 0 | Plant response rating, Galium (galium; 62 g ai/ha, scale 0-100): 10 | Plant response rating, Galium (galium; 125 g ai/ha, scale 0-100): 70 | Plant response rating, Galium (galium; 250 g ai/ha, scale 0-100): 100 | Plant response rating, Wheat, Spring (spring wheat; 16 g ai/ha, scale 0-100): 60 | Plant response rating, Wheat, Spring (spring wheat; [3]): 0 | Plant response rating, Wheat, Spring (spring wheat; [4]): 0 | Plant response rating, Wheat, Spring (spring wheat; [5]): 0 | Plant response rating, Wheat, Spring (spring wheat; [6]): 0 | Plant response rating, Wheat, Winter (winter wheat; 16 g ai/ha, scale 0-100): 65 | Plant response rating, Wheat, Winter (winter wheat; [3]): 0 | Plant response rating, Wheat, Winter (winter wheat; [4]): 0 | Plant response rating, Wheat, Winter (winter wheat; [5]): 0 | Plant response rating, Wheat, Winter (winter wheat; [6]): 0 | Plant response rating, Windgrass (windgrass; [7]): 0 | Plant response rating, Windgrass (windgrass; 31 g ai/ha, scale 0 (no effect) to 100 (complete control)): 0 | Plant response rating, Windgrass (windgrass; 62 g ai/ha, scale 0-100): 0 | Plant response rating, Windgrass (windgrass; 125 g ai/ha, scale 0-100): 10 | Plant response rating, Windgrass (windgrass; 250 g ai/ha, scale 0-100): 20 | Plant response rating, Field Poppy (field poppy; [7]): 40 | Plant response rating, Field Poppy (field poppy; 62 g ai/ha, scale 0-100): 40 | Plant response rating, Field Poppy (field poppy; 125 g ai/ha, scale 0-100): 70 | Plant response rating, Field Poppy (field poppy; 250 g ai/ha, scale 0-100): 80 | Plant response rating, Chamomile (chamomile [2]; 31 g ai/ha): 0 | Plant response rating, Chamomile (chamomile [2]; 62 g ai/ha): 0 | Plant response rating, Chamomile (chamomile [2]; 125 g ai/ha): 20 | Plant response rating, Chamomile (chamomile [2]; 250 g ai/ha): 40
